Data published in patent publication US10023593B2, “ALK kinase inhibitor, and preparation method and uses thereof” (BEIJING PEARL BIOTECHNOLOGY LIMITED LIABILITY COMPANY, priority 2014, dated 2018).

Columns and labels:
[1] = target: T1, Wild Type ALK kinase (Homo sapiens, UniProt Q9UM73); assay: HTRF KinEASE-TK assay, inhibitory activity on wild type ALK kinase; format: biochemical; settings: wild type ALK 1 ng/μl, substrate 1 μM, 30° C. 35 minutes, read-out: Inhibition on ALK kinases (wildtype), IC50
T1 construct: purchased Sino-US Crown Bioscience, Inc. batch number ALK 20110607
T1 sequence (Q9UM73 19-1620): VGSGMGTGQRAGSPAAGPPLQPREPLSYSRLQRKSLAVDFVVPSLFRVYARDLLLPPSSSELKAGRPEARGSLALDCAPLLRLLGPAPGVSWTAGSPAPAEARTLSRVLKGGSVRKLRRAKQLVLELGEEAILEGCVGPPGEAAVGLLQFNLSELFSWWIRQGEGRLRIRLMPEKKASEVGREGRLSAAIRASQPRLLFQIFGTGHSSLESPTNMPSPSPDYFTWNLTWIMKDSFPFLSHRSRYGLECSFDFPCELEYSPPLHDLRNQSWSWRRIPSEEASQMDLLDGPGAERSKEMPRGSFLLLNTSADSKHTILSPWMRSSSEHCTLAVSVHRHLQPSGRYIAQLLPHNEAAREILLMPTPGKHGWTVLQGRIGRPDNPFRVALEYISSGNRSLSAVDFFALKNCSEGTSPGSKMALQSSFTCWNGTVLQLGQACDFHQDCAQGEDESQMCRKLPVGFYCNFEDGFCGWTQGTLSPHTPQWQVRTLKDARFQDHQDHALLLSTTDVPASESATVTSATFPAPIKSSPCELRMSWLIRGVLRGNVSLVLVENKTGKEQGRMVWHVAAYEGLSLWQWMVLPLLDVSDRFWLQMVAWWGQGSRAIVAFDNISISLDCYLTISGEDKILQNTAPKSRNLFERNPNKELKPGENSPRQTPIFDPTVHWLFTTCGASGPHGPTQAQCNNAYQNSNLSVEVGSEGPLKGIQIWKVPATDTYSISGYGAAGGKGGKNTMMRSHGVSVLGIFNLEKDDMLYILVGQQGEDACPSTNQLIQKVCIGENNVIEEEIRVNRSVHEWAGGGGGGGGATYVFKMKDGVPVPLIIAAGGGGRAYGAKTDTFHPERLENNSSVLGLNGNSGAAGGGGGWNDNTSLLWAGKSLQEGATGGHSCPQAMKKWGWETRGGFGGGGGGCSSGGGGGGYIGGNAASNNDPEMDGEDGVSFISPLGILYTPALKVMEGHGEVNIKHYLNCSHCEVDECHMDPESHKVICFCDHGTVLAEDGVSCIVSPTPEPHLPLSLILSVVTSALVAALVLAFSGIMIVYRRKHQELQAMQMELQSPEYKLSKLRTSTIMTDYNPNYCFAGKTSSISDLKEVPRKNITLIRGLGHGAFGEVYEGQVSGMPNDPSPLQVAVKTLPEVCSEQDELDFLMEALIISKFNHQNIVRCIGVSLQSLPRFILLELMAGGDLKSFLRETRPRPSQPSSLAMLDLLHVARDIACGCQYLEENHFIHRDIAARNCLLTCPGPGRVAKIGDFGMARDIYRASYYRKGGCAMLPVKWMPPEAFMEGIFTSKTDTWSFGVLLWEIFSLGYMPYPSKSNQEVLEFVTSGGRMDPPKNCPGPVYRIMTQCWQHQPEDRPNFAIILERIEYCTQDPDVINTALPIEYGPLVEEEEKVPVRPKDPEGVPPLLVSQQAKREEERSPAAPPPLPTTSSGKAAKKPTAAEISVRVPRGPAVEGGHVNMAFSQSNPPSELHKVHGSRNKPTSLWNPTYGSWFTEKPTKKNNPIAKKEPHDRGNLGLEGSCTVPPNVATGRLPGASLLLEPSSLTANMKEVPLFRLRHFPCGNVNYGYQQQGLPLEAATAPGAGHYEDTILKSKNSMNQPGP
Excerpt: 1. Inhibitory Activities of the Compounds of the Present Invention on Wild Type ALK Kinases
? experimental method ? HTRF KinEASE™-TK Assay kit from Cisbio company was used to detect inhibitory activities of the compounds on wildtype ALK kinases (wild type ALK kinases).
(§1) ? instrument ? Envision 2104 plate reader from PerKinElmer company.
(§2) ? experiment material ? HTRF KinEASE™-TK Assay Kit (Cisbio company, catalog No. 62TK0PEC); Wild Type ALK kinase (produced by Sino-US Crown Bioscience, Inc., batch number ALK 20110607); DTT (Gibco BRL company, catalog No. 15508-012); MgCl2 (Sigma Aldrich company, catalog No. M-2670); ATP (Sigma Aldrich company, catalog No. A-7699); DMSO (AMRESCO company, catalog No. 0231); EDTA (AMRESCO company, catalog No. 0105); 96 wells plates (for diluting compounds) (CITOTEST company, catalog No. Ref36020096D); OptiPlate™-384 (White), PerkinElmer company, catalog No. P12-004)
(§3) ? experimental condition ? Compounds (the final concentration of DMSO was 1%), the reaction substrate (the final concentration was 1 μM), ATP (the final concentration was 2004), and Wildtype ALK kinases (the final concentration was 1 ng/μl) were mixed respectively in a final volume of 10 μl reaction system (containing 5 mM MgCl2, 1× Kinase buffer, and 1 mM DTT). The mixture was reacted at 30° C. for 35 minutes after shaking for 30 seconds. After completion of the reaction, each well was added with 5 μl Sa-XL665 and 5 μl TK Antibody-Eu(K), and placed in the dark for 60 minutes to end the reaction after uniform mixing. The data was read from PerkinElmer EnVision plate reader ([…]), the 665/615 ratio was calculated, and the data was analyzed.
(§4) ? tested samples ? Compounds from the examples.
(§5) ? data analysis ? Minimum 665/615 ratio (Rmin, 665/615 ratio under the condition that 10.4 μM positive control drug LDK-378 was added)
(§6) Maximum 665/615 ratio (Rmax, 665/615 ratio under the condition that no compound was added)
(§7) Tested 665/615 ratio (Rcompound, 665/615 ratio under the condition that a given concentration of compound was added) Inhibition rate (%)=[1−(Rcompound−Rmin)/(Rmax−Rmin)]×100
(§8) ? data processing ? IC50 of compounds was calculated by using XLfit program in Excel.

[2] = target: T2, L1196M mutant ALK kinase (Homo sapiens, UniProt Q9UM73, L1196M); assay: HTRF KinEASE-TK assay, inhibitory activity on L1196M mutant ALK kinase; format: biochemical; settings: L1196M mutant ALK 1 ng/μl, substrate 1 μM, ATP 5 μM, 30° C. 35 minutes, read-out: Inhibition on ALK kinases (L1196M mutant), IC50
T2 construct: purchased Sino-US Crown Bioscience, Inc. batch number ALKm_20110923
T2 sequence (Q9UM73 19-1620 L1196M): as the sequence (Q9UM73 19-1620) above, with L1178M counted along it
Excerpt: 2. Inhibitory Activities of the Compounds of the Present Invention on L1196M Mutant ALK Kinases
? experimental method ? HTRF KinEASE™-TK Assay kit from Cisbio company was used to detect inhibitory activities of the compounds on L1196M mutant ALK kinases.
as §1
as §2, with “L1196M mutant” for “Wild Type”, “ALKm_20110923);” for “ALK 20110607);”, “A-7699, batch number 051M7014V);” for “A-7699);”
as §3, with “5 μM),” for “2004),”, “L1196M mutant” for “Wildtype”
as §4, §5, §6, §7, §8

[3] = system: NCI-H2228 cell line; assay: CellTiter-Glo cell proliferation inhibition on NCI-H2228 cell line; format: cell-based; settings: Homo sapiens, NCI-H2228, 96 h, NCI-H2228 cells, 5000 cells/well, 4 days drug treatment
Description: 3. Cell Proliferation Inhibitory Activities of the Compounds of the Present Invention on NCI-H2228 Cell Line
? experimental method ? CellTiter-Glo® Luminescent Cell Viability Assay kit from Promega company was used to detect cell proliferation inhibitory activities of the compounds on NCI-H2228 cell line.
? instrument ? Envision 2104 plate reader from PerKinElmer company; Vi-Cell XR cell counter from Beckman Counter company; MCO-18AIC CO2 incubator from SANYO company.
? experiment material ? CellTiter-Glo® Luminescent Cell Viability Assay Kit (Promega company, catalog No. G7573); NCI-H2228 cell line (ATCC, catalog No. CRL-5935); RPMI-1640 medium (HyClone company, catalog No. SH30809.01B); fetal bovine serum (FBS) (Gibco company, catalog No. 10099-141); trypsin (Trypsin) (Gibco company, catalog No. 25200-072); PBS (HyClone company, catalog No. SH30256.01B); 96 wells cell culture plate (Corning company, catalog No. 3610); DMSO (AMRESCO company, catalog No. 0231); 96 wells plates (for diluting compounds) (CITOTEST company, catalog No. Ref36020096D);
? experimental condition ? NCI-H2228 cells in exponential growth phase were collected and treated with trypsin (Trypsin), and viable cells were counted by Vi-Cell XR cell counter. Cell suspension was adjusted to 62500 cells/ml with culture medium (RPMI-1640+10% FBS). 80 μl cell suspension was added into each well of 96 wells cell culture plate so that the final cell number of NCI-H2228 cells was 5000 cells/well. The cells were cultivated in an incubator with an atmosphere of 37° C., 5% CO2 and 95% humidity for 2 hours and then each well was added with 20 μl compounds in RPMI-1640 medium solution (the final concentration of DMSO was 0.5%). 4 days after drug treatment, each well was added with 50 μl CellTiter-Glo solution which was previously thawed and equilibrated to room temperature, and mixed for 2 minutes with microplate shaker. After placing at room temperature for 10 minutes, luminescence value was measured by PerkinElmer Envision 2104 plate reader and the data was analyzed.
? tested samples ? Compounds of the examples.
? data analysis ? Luminescence value of DMSO solvent control (Vvehicle control, which is the mean luminescence value from DMSO solvent control group)
Tested luminescence value (Vsample, which is the luminescence value from given concentration of compounds group) Inhibition rate (%)=(1−Vsample/Vvehicle control)×100
as §8

| SMILES | IC50 [1] [nM] | IC50 [2] [nM] | IC50 [3] [nM] |
| --- | --- | --- | --- |
| Cc1cc(Nc2ncc(Cl)c(Nc3cn(C)nc3S(=O)(=O)C(C)C)n2)c(C(C)C)cc1C1CCN(C)CC1 [Final product 33] | 12 | 28 | 660 |
| Cc1cc(Nc2ncc(Cl)c(Nc3cn(C)nc3S(=O)(=O)C3CCC3)n2)c(OC2CC2)cc1C1CCN(C)CC1 [Final product 52] | 2 | 15 | 76 |
| Cc1cc(Nc2ncc(F)c(Nc3cn(C)nc3S(=O)(=O)C(C)C)n2)c(OC2CC2)cc1C1CCN(C)CC1 [Final product 70] | 2 | 18 | 81 |
| Cc1cc(Nc2ncc(C)c(Nc3cn(C)nc3S(=O)(=O)C(C)C)n2)c(OC2CC2)cc1C1CCN(C)CC1 [Final product 72] | 1 | 6 | 69 |
| Cc1cc(Nc2ncc(Cl)c(Nc3cn(C)nc3S(=O)(=O)C(C)C)n2)c(OC2CC2)cc1C1CCN(C)C(C)C1 (centres unmarked) [Final product 92] | 2 | 5 | 48 |
| Cc1nc(S(=O)(=O)C(C)C)c(Nc2nc(Nc3cc(C)c(C4CCN(C)CC4)cc3OC3CC3)ncc2Cl)s1 [Final product 113] | 6 | 22 | 150 |
| Cc1cc(Nc2ncc(Cl)c(Nc3cn(C)nc3S(=O)(=O)C(C)C)n2)c(OC2CC2)cc1C1CCN(C(C)C)CC1 [Final product 123, 5-chloro-N^2-[2-cyclopropoxy-4-(1-isopropylpiperidin-4-yl)-5-methyl-phenyl]-N^4-[1-methyl-3-(isopropylsulfonyl)-1H-pyrazol-4-yl]-pyrimidin-2,4-diamine] | 2 | 5 |  |
| Cc1cc(Nc2ncc(Cl)c(Nc3cn(C)nc3S(=O)(=O)C(C)C)n2)c(OC2CC2)cc1C1CCN(C(=O)C(C)C)CC1 [Final product 163, 1-isobutyryl-4-(4-(5-chloro-4-(3-(isopropylsulfonyl)-1-methyl-1H-pyrazol-4-amino)pyrimidin-2-amine)-5-cyclopropoxy-2-methylphenyl)piperidine] | 26 | 29 | 149 |
| Cc1cc(Nc2ncc(Cl)c(Nc3cn(C)nc3S(=O)(=O)CC(C)C)n2)c(OC(C)C)cc1C1CN(S(C)(=O)=O)C1 [Final product 169] | 68 | 43 | 133 |
| CCN(CC)[C@H]1CC[C@@H](c2cc(OC3CC3)c(Nc3ncc(Cl)c(Nc4cn(C)nc4S(=O)(=O)C(C)C)n3)cc2C)CC1 [Final product 191] | 8 | 17 | 60 |
| CCN(CC)[C@H]1CC[C@H](c2cc(OC3CC3)c(Nc3ncc(Cl)c(Nc4cn(C)nc4S(=O)(=O)C(C)C)n3)cc2C)CC1 [Final product 192] | 9 | 12 | 68 |
| Cc1cc(Nc2ncc(C(F)(F)F)c(Nc3cn(C)nc3S(=O)(=O)C(C)C)n2)c(OC2CC2)cc1C1CCN(C)CC1 [Final product 209, N^2-[2-cyclopropoxy-4-(1-methyl-piperidin-4-yl)-5-methylphenyl]-N^4-[1-methyl-3-(isopropylsulfonyl)-1H-pyrazol-4-yl]-5-(trifluoromethyl)pyrimidin-2,4-diamine] | 3 | 9 | 71 |
| Cc1cc(Nc2ncc(C#N)c(Nc3cn(C)nc3S(=O)(=O)C(C)C)n2)c(OC2CC2)cc1C1CCN(C)CC1 [Final product 210, N^2-[2-cyclopropoxy-4-(1-methyl-piperidin-4-yl)-5-methyl-phenyl]-N^4-[1-methyl-3-(isopropylsulfonyl)-1H-pyrazol-4-yl]-5-(cyano)pyrimidin-2,4-diamine] | 2 | 4 | 87 |
| Cc1cc(Nc2ncc(Cl)c(Nc3cn(C)nc3C#N)n2)c(OC2CC2)cc1C1CCN(C)CC1 [Final product 211, 5-chloro-N^2-[2-cyclopropoxy-4-(1-methyl-piperidin-4-yl)-5-methyl-phenyl]-N^4-[1-methyl-3-cyano-1H-pyrazol-4-yl]-pyrimidin-2,4-diamine] | 3 | 11 | 272 |
| Cc1cc(Nc2nc(Nc3cc(C)c(C4CCN(C)CC4)cc3OC(C)C)ncc2Cl)n[nH]1 [Final product 212, 5-chloro-N^2-[2-isopropoxy-4-(1-methyl-piperidin-4-yl)-5-methyl-phenyl]-N^4-[5-methyl-1H-pyrazol-3-yl]-pyrimidin-2,4-diamine, reference compound] | 13 | 37 | 725 |
| Cc1cc(Nc2nc(Nc3cc(C)c(C4CCN(C(C)C)CC4)cc3C)ncc2Cl)n[nH]1 [Final product 213, reference compound] | 19 | 22 | 964 |
| Cc1cc(Nc2nc(Nc3cc(C)c(C4CCCNC4)cc3C)ncc2Cl)n[nH]1 (centres unmarked) [Final product 214, reference compound] | 22 | 54 | 1240 |
| Cc1cc(Nc2nc(Nc3cc(C)c(C4CCN(CCO)CC4)cc3C)ncc2Cl)n[nH]1 [Final product 215, reference compound] | 28 | 39 | 1040 |
